The results in this text go back to the NIST ThermoML archive (doi:10.1016/j.fluid.2018.09.024).

SMILES strings stand for the structures. Numbers after ± are expanded uncertainties.

The data set in a line: activity coefficient (dimensionless); of the first substance listed, at infinite dilution; xn = mol fraction of the nth substance listed. As to conditions: 101.33 kPa, Liquid, Chromatography, x1 = 0.

For `CCCCO` [butan-1-ol] + CCCCCCCCCCCC[N+](C)(C)CCOc1ccccc1.O=S(=O)([N-]S(=O)(=O)C(F)(F)F)C(F)(F)F, the activity coefficient came out at 1.38 ± 0.09 (318.15 K); 1.32 ± 0.09 (328.15 K); 1.28 ± 0.08 (338.15 K); 1.23 ± 0.08 (348.15 K); 1.19 ± 0.08 (358.15 K); 1.15 ± 0.07 (368.15 K).
With `CCC(C)O` (stereo not drawn) [butan-2-ol] + CCCCCCCCCCCC[N+](C)(C)CCOc1ccccc1.N#C[N-]C#N, the activity coefficient by setting is: (328.15 K) 0.495 ± 0.038; (338.15 K) 0.508 ± 0.038; (348.15 K) 0.522 ± 0.039; (358.15 K) 0.536 ± 0.039; (368.15 K) 0.55 ± 0.04; (378.15 K) 0.564 ± 0.041.
As for `CCC(C)O` (stereo not drawn) [butan-2-ol] + CCCCCCCCCCCC[N+](C)(C)CCOc1ccccc1.O=S(=O)([N-]S(=O)(=O)C(F)(F)F)C(F)(F)F, the activity coefficient runs as follows: (318.15 K) 1.23 ± 0.08; (328.15 K) 1.2 ± 0.08; (338.15 K) 1.17 ± 0.07; (348.15 K) 1.15 ± 0.07; (358.15 K) 1.12 ± 0.07; (368.15 K) 1.1 ± 0.07.
Take `CCCC=O` [butanal] + CCCCCCCCCCCC[N+](C)(C)CCOc1ccccc1.N#C[N-]C#N: the activity coefficient by setting is: (328.15 K) 0.766 ± 0.05; (338.15 K) 0.779 ± 0.051; (348.15 K) 0.79 ± 0.051; (358.15 K) 0.803 ± 0.052; (368.15 K) 0.816 ± 0.053; (378.15 K) 0.828 ± 0.053.
On to `CCCC=O` [butanal] + CCCCCCCCCCCC[N+](C)(C)CCOc1ccccc1.O=S(=O)([N-]S(=O)(=O)C(F)(F)F)C(F)(F)F, for which the activity coefficient runs as follows: (318.15 K) 0.711 ± 0.047; (328.15 K) 0.742 ± 0.049; (338.15 K) 0.777 ± 0.051; (348.15 K) 0.81 ± 0.052; (358.15 K) 0.844 ± 0.054; (368.15 K) 0.876 ± 0.056.
On to `C1CCCCCC1` [cycloheptane] + CCCCCCCCCCCC[N+](C)(C)CCOc1ccccc1.N#C[N-]C#N, for which the activity coefficient is 3.26 ± 0.22 (328.15 K); 3.29 ± 0.22 (338.15 K); 3.31 ± 0.23 (348.15 K); 3.34 ± 0.23 (358.15 K); 3.37 ± 0.23 (368.15 K); 3.39 ± 0.23 (378.15 K).
In the case of `C1CCCCCC1` [cycloheptane] + CCCCCCCCCCCC[N+](C)(C)CCOc1ccccc1.O=S(=O)([N-]S(=O)(=O)C(F)(F)F)C(F)(F)F, the activity coefficient is, setting by setting: (318.15 K) 2.26 ± 0.15; (328.15 K) 2.3 ± 0.16; (338.15 K) 2.34 ± 0.16; (348.15 K) 2.37 ± 0.16; (358.15 K) 2.4 ± 0.16; (368.15 K) 2.43 ± 0.17.
On to `C1CCCCC1` [cyclohexane] + CCCCCCCCCCCC[N+](C)(C)CCOc1ccccc1.N#C[N-]C#N, for which the activity coefficient is, setting by setting: (328.15 K) 3.15 ± 0.21; (338.15 K) 3.16 ± 0.22; (348.15 K) 3.18 ± 0.22; (358.15 K) 3.2 ± 0.22; (368.15 K) 3.22 ± 0.22; (378.15 K) 3.24 ± 0.22.
`C1CCCCC1` [cyclohexane] + CCCCCCCCCCCC[N+](C)(C)CCOc1ccccc1.O=S(=O)([N-]S(=O)(=O)C(F)(F)F)C(F)(F)F: the activity coefficient (318.15 K) was 2.02 ± 0.14; the activity coefficient (328.15 K) was found to be 2.05 ± 0.14; the activity coefficient (338.15 K) turned out to be 2.08 ± 0.14; the activity coefficient (348.15 K) was found to be 2.11 ± 0.14; the activity coefficient (358.15 K) came out at 2.13 ± 0.14; the activity coefficient (368.15 K) stood at 2.16 ± 0.15.
In the case of `C1=CCCCC1` [cyclohexene] + CCCCCCCCCCCC[N+](C)(C)CCOc1ccccc1.N#C[N-]C#N, the activity coefficient is 2.16 ± 0.15 (328.15 K); 2.19 ± 0.15 (338.15 K); 2.22 ± 0.15 (348.15 K); 2.26 ± 0.15 (358.15 K); 2.29 ± 0.16 (368.15 K); 2.31 ± 0.16 (378.15 K).
Regarding `C1=CCCCC1` [cyclohexene] + CCCCCCCCCCCC[N+](C)(C)CCOc1ccccc1.O=S(=O)([N-]S(=O)(=O)C(F)(F)F)C(F)(F)F, the activity coefficient reads like this: (318.15 K) 1.47 ± 0.1; (328.15 K) 1.52 ± 0.1; (338.15 K) 1.56 ± 0.1; (348.15 K) 1.61 ± 0.11; (358.15 K) 1.65 ± 0.11; (368.15 K) 1.69 ± 0.11.
Regarding `C1CCCCCCC1` [cyclooctane] + CCCCCCCCCCCC[N+](C)(C)CCOc1ccccc1.N#C[N-]C#N, the activity coefficient runs as follows: (328.15 K) 3.56 ± 0.24; (338.15 K) 3.63 ± 0.25; (348.15 K) 3.69 ± 0.25; (358.15 K) 3.72 ± 0.25; (368.15 K) 3.76 ± 0.26; (378.15 K) 3.79 ± 0.26.
Turning to `C1CCCCCCC1` [cyclooctane] + CCCCCCCCCCCC[N+](C)(C)CCOc1ccccc1.O=S(=O)([N-]S(=O)(=O)C(F)(F)F)C(F)(F)F, the activity coefficient (318.15 K) worked out at 2.57 ± 0.17; the activity coefficient (328.15 K) is 2.61 ± 0.18; the activity coefficient (338.15 K) came to 2.65 ± 0.18; the activity coefficient (348.15 K) was determined as 2.68 ± 0.18; the activity coefficient (358.15 K) was found to be 2.71 ± 0.18; the activity coefficient (368.15 K) was found to be 2.75 ± 0.19.
As to `CCCCCCCCCC` [decane] + CCCCCCCCCCCC[N+](C)(C)CCOc1ccccc1.N#C[N-]C#N, the activity coefficient runs as follows: (328.15 K) 9.02 ± 0.62; (338.15 K) 9.17 ± 0.63; (348.15 K) 9.31 ± 0.64; (358.15 K) 9.45 ± 0.64; (368.15 K) 9.6 ± 0.65; (378.15 K) 9.75 ± 0.67.
With `CCCCCCCCCC` [decane] + CCCCCCCCCCCC[N+](C)(C)CCOc1ccccc1.O=S(=O)([N-]S(=O)(=O)C(F)(F)F)C(F)(F)F, the activity coefficient reads like this: (318.15 K) 5.72 ± 0.39; (328.15 K) 5.8 ± 0.4; (338.15 K) 5.87 ± 0.4; (348.15 K) 5.92 ± 0.4; (358.15 K) 5.98 ± 0.41; (368.15 K) 6.03 ± 0.41.
Turning to `CCOCC` [diethyl ether] + CCCCCCCCCCCC[N+](C)(C)CCOc1ccccc1.N#C[N-]C#N, the activity coefficient came to 2.17 ± 0.15 (328.15 K); 2.22 ± 0.15 (338.15 K); 2.28 ± 0.16 (348.15 K); 2.34 ± 0.16 (358.15 K); 2.39 ± 0.16 (368.15 K); 2.44 ± 0.17 (378.15 K).
Take `CCOCC` [diethyl ether] + CCCCCCCCCCCC[N+](C)(C)CCOc1ccccc1.O=S(=O)([N-]S(=O)(=O)C(F)(F)F)C(F)(F)F: the activity coefficient by setting is: (318.15 K) 1.06 ± 0.07; (328.15 K) 1.12 ± 0.07; (338.15 K) 1.18 ± 0.08; (348.15 K) 1.24 ± 0.08; (358.15 K) 1.3 ± 0.08; (368.15 K) 1.36 ± 0.09.
Regarding `CC(C)OC(C)C` [diisopropyl ether] + CCCCCCCCCCCC[N+](C)(C)CCOc1ccccc1.N#C[N-]C#N, the activity coefficient runs as follows: (328.15 K) 4.03 ± 0.27; (338.15 K) 4.12 ± 0.28; (348.15 K) 4.22 ± 0.29; (358.15 K) 4.29 ± 0.29; (368.15 K) 4.36 ± 0.3; (378.15 K) 4.43 ± 0.3.
